This note sets out measurements from patent US20040087498A1, “Modified factor VII” (Novo Nordisk Health Care AG, priority 1991, published 2004).

“And” between values parts separate entries of the source, which are not always exact repeats. Equal entries are not always repeated.

One data set concerns rabbit plasma. The data set can be described thus: Prothrombin time in plasma of balloon angioplasty rabbits. In kind it is in vivo. As to conditions: for Clotting Time (prothrombin time), individual animals: listed as DEGR-FVIIa. The method, then: (§1) The test drug delivery for the animals consisted of an initial bolus injection immediately prior to balloon angioplasty, followed by a continuous systemic infusion by osmotic pump via the internal jugular vein. The duration of the drug infusion was 3 days. The control animals received heparin, 150 U/kg IV bolus, prior to balloon angioplasty followed by saline infusion. The DEGR-FVIIa treated animals received a 1 mg/kg bolus injection followed by 50 μg/kg/hr infusion.
(§2) Prothrombin time and concentration of DEGR-FVIIa in the blood were determined at immediately pre-bolus injection of the test compound, 1 hr post bolus injection, and at 3 days at the end of continuous infusion. One to two mls of citrated plasma was obtained and the prothrombin times and antigen levels determined.
A standard clotting assay was used to monitor the prothrombin time in the control and DEGR-FVIIa-treated animals as follows. Twenty-five microliters of test rabbit plasma, collected with sodium citrate as anticoagulant, was added to 150 μl of TBS (20 mM Tris, pH 7.4, 150 mM NaCl). The samples were mixed and added to an Electra 800 Automated Coagulation Timer (Medical Laboratories Automation, Pleasantville, N.Y.). After incubation, 200 μl of thromboplastin preparation (Sigma Chemical) containing 25 mM CaCl2 was added to the plasma preparations. A concentration of thromboplastin that gave a clotting time of approximately 20 seconds in the control rabbit plasma was selected.

Data set [1] has as its system intimal lesion development in femoral arteries. The data set can be described thus: Morphometry of intima and media after balloon angioplasty in atherosclerotic rabbits. In kind it is in vivo. As to conditions: rabbit femoral artery, three weeks post-angioplasty; 1 mg/kg bolus + 50 μg/kg/hr for 3 days. The method, then: DEGR-FVIIa was evaluated for its ability to modulate lesion development following balloon angioplasty in New Zealand White (NZW) atherosclerotic rabbits. This animal model has been well characterized and has proven to be a good model for evaluating anti-thrombotic compounds on vascular lesion development (Gimple et al., Circulation 86:1536-1546 (1992), and Rogosta et al., Circulation 89:1262-1271 (1994)). The animal model used to evaluate DEGR-FVIIa is essentially as described by Ragosta, ibid.
Anesthesia was induced in rabbits with 5 mg/kg xylazine and 35 mg/kg ketamine by intramuscular injection. The proximal femoral arteries were exposed by cutdown below the inguinal ligament with proximal and distal ligatures. The isolated segments were cannulated with 27 gauge needles. A vent was created by needle puncture. The isolated segments were flushed with saline to clear residual blood, and desiccated by air infused at a rate of 80 ml/min for 8 minutes. Following air-drying, the isolated segments were again flushed with saline and the ligatures removed. Hemostasis was maintained with non-occlusive local pressure. The segments were demarcated with metal clips. Local spasm was treated with Xylocaine 1% locally. The day following surgery, the animals were placed on 1% cholesterol and 6% peanut oil diet for one month until balloon angioplasty. […]

Data set [2] in a line: ELISA for DEGR-FVIIa in rabbit plasma. In kind it is in vivo. As to conditions: for FVIIa ELISA, DEGR-FVIIa in rabbit plasma, individual animals: listed as DEGR-FVIIa. The protocol: as §1, §2
An ELISA assay was used to determine the concentration of DEGR-FVIIa in plasma samples from the control and DEGR-FVIIa treated rabbits. The assay involved first diluting an anti-human FVII monoclonal antibody (Dr. W. Kisiel, U. of New Mexico) to 2.0 μg/ml in 0.1 M carbonate buffer pH 9.6, and adding 100 μl/well to 96-well plates. The plates were then incubated at 4° C. overnight and subsequently washed two times using wash buffer (PBS, pH 7.4, containing 0.05% Tween 20).
After blocking, a standard dilution series of DEGR-FVIIa ranging from 20-0.027 ng/ml was added, along with a dilution series of the test rabbit plasma (1:100 to 1:4000 in blocking buffer) applied at 100 μl/well. Non-immune rabbit plasma was used as a negative control. Plates were then incubated for 1 hr at 37° C. followed by four washes with wash buffer.
DEGR-FVIIa was detected by adding 100 μl/well of a 1:1,000 dilution of rabbit anti-human FVII polyclonal antibody (Dr. Kisiel, U. New Mexico) in blocking buffer. Plates were incubated for 1 hr at 37° C., followed by five washes with wash buffer. Specific antibody binding was detected using 100 μl/well of a 1:2,000 dilution of goat anti-rabbit IgG antibody-peroxidase conjugate (Tago, Inc.). Plates were incubated for 1 hr at 37° C. and washed six times with wash buffer. Finally, 100 μl of substrate solution was added (0.42 mg/ml of o-phenylenediamine dihydrochloride [OPD] in 0.2 M citrate buffer, pH 5.0, containing 0.3% H2O2). After 1-3 min at room temp. the color reaction was stopped by adding 100 μl/well of 1N H2SO4 and the plates were read at 490 nm on a Microplate spectrophotometer. The concentration of DEGR-FVIIa in the plasma samples was determined by comparing the A490 values of the unknown to those of the DEGR-FVIIa standard curve.
Background: In an ELISA, binding on a coated surface is turned into a signal by an enzyme label.

For a further data set, the system named is gram-negative bacteremia. The data set can be described thus: Survival of treated baboons. In kind it is in vivo, baboon.
Data set [3] has as its system fibrin deposition associated with endotoxemia. Briefly: Fibrin deposition in kidneys and lungs in rabbits. In kind it is in vivo, rabbit.
Setting [4] is: 1 hour after 1 mg/kg bolus, 50 μg/kg/hr infusion.
Where [5] appears, read: 3 days, end of 50 μg/kg/hr infusion.

On to “DEGR-Factor VIIa: Recombinant human Factor VIIa with its active site derivatized by Dansyl-L-Glu-Gly-Arg-chloromethyl Ketone (DEGRck)”, for which the “Plasma clotting time, Mean” value in the data set on rabbit plasma (1 Hr POST ANGIO) is recorded as 40.8; in the data set on rabbit plasma (3 Days POST ANGIO) it was 21.06; in the data set with rabbit plasma (PRE-BLEED) it was 23.2. The “Clotting Time (prothrombin time), individual animals” value with rabbit plasma (setting [4]) was 40.1 s and 34 s and 50 s and 33.3 s and 45.8 s and 41.6 s; with rabbit plasma (setting [5]), 18.3 s and 20.9 s and 21.7 s and 21 s and 21.2 s and 21.9 s and 22.4 s; with rabbit plasma (Pretreatment (pre-bolus)), 22.5 s and 24.3 s and 24.7 s and 23.6 s and 20.6 s and 23.5 s. Besides, in data set [1], the Intima was found to be 0.438 mm2. In data set [1], the Media was 0.329 mm2. Besides, the “FVIIa ELISA, DEGR-FVIIa in rabbit plasma, individual animals” value in data set [2] (setting [4]) is 3,210 ng/ml and 4,950 ng/ml and 4,543 ng/ml and 4,900 ng/ml and 4,600 ng/ml and 2,145 ng/ml and 2,830 ng/ml; in data set [2] (setting [5]), 102 ng/mL and 7 ng/mL and 661 ng/mL and 117 ng/mL and 502 ng/mL and 212 ng/mL and 228 ng/mL; in data set [2] (Pretreatment), 0 ng/ml and 1 ng/ml and 13 ng/ml (2×) and 65 ng/ml and 4 ng/ml and 9 ng/ml. For the same substance, in data set [2] (rabbit, 1 hr time point, range over animals), the “DEGR-FVIIa antigen level in the plasma” value lay within 2 to 6 µg/mL. Moreover, the survival result in the data set on gram-negative bacteremia was “prolong survival of treated animals”. In data set [3], the “fibrin deposition in kidneys and lungs” value is “dose-response effect for blocking fibrin deposition in kidneys and lungs”.
